From ChEMBL document CHEMBL5465560, “Selectivity Literature for EUbOPEN Chemogenomic Library” (2024)

Experiments:
[1] = molecular target: Mitogen-activated protein kinase 14 (Homo sapiens, UniProt Q16539); experiment: Selectivity interaction (Millipore kinase profiler) EUB0000124b MAPK14; details: at 10 µM
[2] = molecular target: Fibroblast growth factor receptor 1 (Homo sapiens, UniProt P11362); experiment: Selectivity interaction (KinaseProfiler screening (Millipore)) EUB0000601a FGFR1; details: at 3 µM
Chain of Fibroblast growth factor receptor 1 (P11362 22-822 limits assumed): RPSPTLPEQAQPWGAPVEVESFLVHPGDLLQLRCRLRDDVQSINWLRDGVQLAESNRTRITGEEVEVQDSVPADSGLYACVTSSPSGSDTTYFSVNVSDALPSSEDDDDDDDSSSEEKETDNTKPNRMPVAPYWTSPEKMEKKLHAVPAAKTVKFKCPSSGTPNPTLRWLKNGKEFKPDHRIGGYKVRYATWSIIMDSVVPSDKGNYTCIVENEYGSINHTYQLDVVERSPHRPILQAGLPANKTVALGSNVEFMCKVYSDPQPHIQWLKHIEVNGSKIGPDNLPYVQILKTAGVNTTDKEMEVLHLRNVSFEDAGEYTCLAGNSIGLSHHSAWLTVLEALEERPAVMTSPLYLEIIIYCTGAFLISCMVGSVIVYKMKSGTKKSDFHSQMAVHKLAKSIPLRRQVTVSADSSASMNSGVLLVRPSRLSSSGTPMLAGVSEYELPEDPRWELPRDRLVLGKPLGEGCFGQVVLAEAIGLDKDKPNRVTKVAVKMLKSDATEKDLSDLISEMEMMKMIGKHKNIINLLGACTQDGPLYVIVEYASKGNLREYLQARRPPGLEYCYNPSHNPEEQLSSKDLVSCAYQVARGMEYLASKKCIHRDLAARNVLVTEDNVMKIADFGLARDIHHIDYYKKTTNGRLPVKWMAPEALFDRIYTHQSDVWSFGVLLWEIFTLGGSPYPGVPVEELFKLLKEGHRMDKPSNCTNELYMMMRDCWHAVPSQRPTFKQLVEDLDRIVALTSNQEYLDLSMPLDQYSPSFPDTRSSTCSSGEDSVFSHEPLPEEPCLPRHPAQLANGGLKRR

[3] = molecular target: Mitogen-activated protein kinase 9 (Homo sapiens, UniProt P45984); experiment: Selectivity interaction (Kinase screening (Upstate/Millipore)) EUB0000604a MAPK9
Chain of Mitogen-activated protein kinase 9 (P45984 whole entry, looked up): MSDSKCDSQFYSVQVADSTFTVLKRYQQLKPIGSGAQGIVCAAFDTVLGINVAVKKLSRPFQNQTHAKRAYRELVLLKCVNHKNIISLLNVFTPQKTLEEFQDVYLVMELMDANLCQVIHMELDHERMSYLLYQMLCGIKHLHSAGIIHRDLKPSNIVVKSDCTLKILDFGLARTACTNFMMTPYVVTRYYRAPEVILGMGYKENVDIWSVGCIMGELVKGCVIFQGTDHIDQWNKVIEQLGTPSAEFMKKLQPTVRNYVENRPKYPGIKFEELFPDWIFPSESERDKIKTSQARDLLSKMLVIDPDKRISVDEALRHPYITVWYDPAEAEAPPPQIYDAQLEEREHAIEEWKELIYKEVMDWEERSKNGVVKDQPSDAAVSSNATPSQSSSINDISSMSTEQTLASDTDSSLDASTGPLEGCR

[4] = molecular target: T1, Mitogen-activated protein kinase kinase kinase 2 (Homo sapiens) (UniProt Q9Y2U5); experiment: Selectivity interaction (Kinase panel (Invitrogen)) EUB0000639a MAP3K2; details: at 200 nM
T1 sequence (whole entry): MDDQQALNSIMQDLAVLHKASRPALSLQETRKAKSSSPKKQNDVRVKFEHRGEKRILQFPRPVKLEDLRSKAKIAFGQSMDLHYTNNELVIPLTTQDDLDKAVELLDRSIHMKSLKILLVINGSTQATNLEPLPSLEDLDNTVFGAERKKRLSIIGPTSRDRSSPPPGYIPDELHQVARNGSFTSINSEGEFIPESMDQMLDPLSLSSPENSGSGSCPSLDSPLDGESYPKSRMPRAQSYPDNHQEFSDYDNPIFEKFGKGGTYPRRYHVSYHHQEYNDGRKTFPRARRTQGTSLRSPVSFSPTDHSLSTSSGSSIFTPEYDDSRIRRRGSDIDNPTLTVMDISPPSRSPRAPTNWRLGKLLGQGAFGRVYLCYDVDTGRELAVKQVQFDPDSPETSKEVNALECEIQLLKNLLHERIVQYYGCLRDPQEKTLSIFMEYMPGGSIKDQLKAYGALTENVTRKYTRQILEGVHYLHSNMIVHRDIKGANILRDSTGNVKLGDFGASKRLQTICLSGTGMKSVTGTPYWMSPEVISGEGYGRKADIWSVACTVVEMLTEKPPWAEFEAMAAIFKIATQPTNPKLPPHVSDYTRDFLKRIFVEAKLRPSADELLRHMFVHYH

[5] = molecular target: Lethal(3)malignant brain tumor-like protein 1 (Homo sapiens) (UniProt Q9Y468); experiment: Selectivity interaction (PWWP, WD40, and Tudor domain panel (DSLS measurements, literature)) EUB0000270b L3MBTL
Chain of Lethal(3)malignant brain tumor-like protein 1 (Homo sapiens) (Q9Y468 whole entry, the tested form may be a part): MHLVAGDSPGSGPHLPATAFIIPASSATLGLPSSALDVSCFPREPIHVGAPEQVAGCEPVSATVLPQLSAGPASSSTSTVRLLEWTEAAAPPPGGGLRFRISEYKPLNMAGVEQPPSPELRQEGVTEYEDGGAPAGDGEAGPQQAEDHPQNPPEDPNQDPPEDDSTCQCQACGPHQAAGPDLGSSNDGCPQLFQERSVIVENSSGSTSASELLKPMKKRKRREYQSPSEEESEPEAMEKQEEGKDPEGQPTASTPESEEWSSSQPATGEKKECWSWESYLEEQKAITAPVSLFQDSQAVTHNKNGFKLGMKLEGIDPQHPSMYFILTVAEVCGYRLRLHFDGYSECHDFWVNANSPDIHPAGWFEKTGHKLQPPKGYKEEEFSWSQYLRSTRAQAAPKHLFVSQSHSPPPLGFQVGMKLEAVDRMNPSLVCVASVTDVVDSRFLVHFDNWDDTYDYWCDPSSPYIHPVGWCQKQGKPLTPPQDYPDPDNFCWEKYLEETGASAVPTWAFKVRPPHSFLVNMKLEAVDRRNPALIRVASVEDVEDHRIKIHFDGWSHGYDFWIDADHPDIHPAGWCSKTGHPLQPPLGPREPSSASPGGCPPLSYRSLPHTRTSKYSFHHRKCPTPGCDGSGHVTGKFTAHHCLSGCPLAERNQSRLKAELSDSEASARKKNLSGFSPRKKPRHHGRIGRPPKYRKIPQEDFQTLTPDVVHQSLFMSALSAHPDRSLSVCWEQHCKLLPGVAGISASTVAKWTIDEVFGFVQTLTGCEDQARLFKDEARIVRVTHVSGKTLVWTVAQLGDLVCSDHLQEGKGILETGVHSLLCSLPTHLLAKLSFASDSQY

[6] = molecular target: Phosphatidylinositol 4-kinase alpha (Homo sapiens, UniProt P42356); experiment: Selectivity interaction (Adapta Assay) EUB0001632a PI4KA; details: at 10 µM
[7] = molecular target: Serine/threonine-protein kinase 38-like (Homo sapiens) (UniProt Q9Y2H1); experiment: Selectivity interaction (KinomeScan (DiscoverX)) EUB0000595a STK38L; details: at 10 µM
Chain of Serine/threonine-protein kinase 38-like (Homo sapiens) (Q9Y2H1 2-464 limits assumed): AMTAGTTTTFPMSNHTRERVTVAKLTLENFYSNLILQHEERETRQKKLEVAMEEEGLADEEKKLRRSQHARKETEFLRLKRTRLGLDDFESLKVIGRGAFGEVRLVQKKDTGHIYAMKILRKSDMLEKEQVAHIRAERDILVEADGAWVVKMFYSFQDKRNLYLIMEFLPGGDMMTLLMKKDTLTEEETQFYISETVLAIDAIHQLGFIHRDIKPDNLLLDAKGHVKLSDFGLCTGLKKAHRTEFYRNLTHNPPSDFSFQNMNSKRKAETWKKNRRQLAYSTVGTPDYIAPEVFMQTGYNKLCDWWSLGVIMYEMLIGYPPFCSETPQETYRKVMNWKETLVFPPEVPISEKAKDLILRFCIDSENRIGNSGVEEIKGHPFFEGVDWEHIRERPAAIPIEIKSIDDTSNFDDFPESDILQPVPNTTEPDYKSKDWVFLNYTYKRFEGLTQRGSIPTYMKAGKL

[8] = molecular target: Mitotic checkpoint serine/threonine-protein kinase BUB1 (Homo sapiens, UniProt O43683); experiment: Selectivity interaction (KinomeScan (DiscoverX)) EUB0001079a BUB1; details: at 1 µM
[9] = molecular target: Serine/threonine-protein kinase PAK 1 (Homo sapiens) (UniProt Q13153); experiment: Selectivity interaction (KinomeScan (DiscoverX)) EUB0000092b PAK1; details: at 10 µM
Chain of Serine/threonine-protein kinase PAK 1 (Homo sapiens) (Q13153 whole entry): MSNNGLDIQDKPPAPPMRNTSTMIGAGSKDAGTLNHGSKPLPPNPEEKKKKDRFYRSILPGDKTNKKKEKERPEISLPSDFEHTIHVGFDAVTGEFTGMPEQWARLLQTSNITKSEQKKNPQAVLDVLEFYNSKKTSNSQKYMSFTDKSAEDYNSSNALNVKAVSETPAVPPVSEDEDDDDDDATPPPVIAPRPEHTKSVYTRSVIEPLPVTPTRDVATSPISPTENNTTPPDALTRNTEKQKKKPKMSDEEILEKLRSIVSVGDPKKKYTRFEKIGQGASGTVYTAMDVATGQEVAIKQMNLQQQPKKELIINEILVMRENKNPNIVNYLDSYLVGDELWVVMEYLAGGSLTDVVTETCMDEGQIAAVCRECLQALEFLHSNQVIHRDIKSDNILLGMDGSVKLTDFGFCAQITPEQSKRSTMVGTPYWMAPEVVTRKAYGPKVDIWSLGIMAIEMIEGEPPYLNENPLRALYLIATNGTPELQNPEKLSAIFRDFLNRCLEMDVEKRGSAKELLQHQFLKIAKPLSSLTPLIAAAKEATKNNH

[10] = molecular target: Tyrosine-protein kinase Fer (Homo sapiens) (UniProt P16591); experiment: Selectivity interaction (KinomeScan (DiscoverX)) EUB0000618a FER; details: at 10 µM
[11] = molecular target: Proto-oncogene tyrosine-protein kinase ROS (Homo sapiens) (UniProt P08922); experiment: Selectivity interaction (KinomeScan (DiscoverX)) EUB0000618a ROS1; details: at 10 µM
[12] = molecular target: Tyrosine-protein kinase ABL1 (Homo sapiens, UniProt P00519); experiment: Selectivity interaction (Kinase panel (DSF assay)) EUB0001559a ABL1
Chain of Tyrosine-protein kinase ABL1 (P00519 whole entry): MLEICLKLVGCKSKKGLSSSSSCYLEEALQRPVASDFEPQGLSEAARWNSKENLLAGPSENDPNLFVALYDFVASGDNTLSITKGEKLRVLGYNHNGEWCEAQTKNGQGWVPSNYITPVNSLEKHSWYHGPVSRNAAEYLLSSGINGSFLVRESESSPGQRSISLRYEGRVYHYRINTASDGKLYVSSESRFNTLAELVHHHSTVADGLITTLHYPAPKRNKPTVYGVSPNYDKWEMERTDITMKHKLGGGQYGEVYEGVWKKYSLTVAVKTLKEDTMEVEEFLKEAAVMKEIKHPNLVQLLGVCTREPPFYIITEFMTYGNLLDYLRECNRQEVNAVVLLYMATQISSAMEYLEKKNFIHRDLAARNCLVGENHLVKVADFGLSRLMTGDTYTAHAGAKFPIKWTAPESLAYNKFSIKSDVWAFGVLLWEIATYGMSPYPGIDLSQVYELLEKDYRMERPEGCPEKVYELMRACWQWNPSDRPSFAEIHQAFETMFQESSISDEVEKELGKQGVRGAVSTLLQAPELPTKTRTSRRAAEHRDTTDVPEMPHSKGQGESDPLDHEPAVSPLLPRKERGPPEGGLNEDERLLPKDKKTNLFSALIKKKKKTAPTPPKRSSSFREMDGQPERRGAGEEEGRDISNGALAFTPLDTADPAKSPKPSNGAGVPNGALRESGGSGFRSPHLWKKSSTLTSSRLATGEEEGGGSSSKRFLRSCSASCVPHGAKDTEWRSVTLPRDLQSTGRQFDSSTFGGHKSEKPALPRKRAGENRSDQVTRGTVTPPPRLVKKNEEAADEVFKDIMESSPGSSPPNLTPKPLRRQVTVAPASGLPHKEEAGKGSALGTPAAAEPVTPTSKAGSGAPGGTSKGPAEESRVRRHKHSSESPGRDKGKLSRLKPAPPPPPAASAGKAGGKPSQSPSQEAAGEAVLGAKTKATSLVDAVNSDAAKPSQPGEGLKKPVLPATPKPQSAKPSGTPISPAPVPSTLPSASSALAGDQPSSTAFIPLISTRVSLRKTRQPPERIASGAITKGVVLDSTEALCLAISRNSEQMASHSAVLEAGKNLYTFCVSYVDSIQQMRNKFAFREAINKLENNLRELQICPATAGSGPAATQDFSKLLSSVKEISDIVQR

[13] = molecular target: T2, Mitogen-activated protein kinase 13 (Homo sapiens) (UniProt O15264); experiment: Selectivity interaction (Kinase panel (KiNativ target engagement assay in Jurkat cells)) EUB0001635a MAPK13; type: cell-based; details: Selectivity number of off-targets 0.0, Selectivity number of targets 233.0, Source Knowledge https://www.sciencedirect.com/science/article/pii/S2451945619300674?via%3Dihub, at 1 µM
T2 sequence (whole entry): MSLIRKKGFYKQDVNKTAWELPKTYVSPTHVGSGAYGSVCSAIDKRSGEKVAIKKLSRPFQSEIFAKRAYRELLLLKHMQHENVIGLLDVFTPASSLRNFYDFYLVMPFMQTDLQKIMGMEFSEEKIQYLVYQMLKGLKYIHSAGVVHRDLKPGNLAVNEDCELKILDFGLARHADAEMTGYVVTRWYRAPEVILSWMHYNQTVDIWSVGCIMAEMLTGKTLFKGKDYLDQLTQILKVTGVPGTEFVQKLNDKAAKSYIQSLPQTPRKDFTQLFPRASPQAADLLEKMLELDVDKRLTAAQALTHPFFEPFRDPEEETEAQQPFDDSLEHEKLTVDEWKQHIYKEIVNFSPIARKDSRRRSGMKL

[14] = molecular target: T3, Serine/threonine-protein kinase Nek9 (Homo sapiens) (UniProt Q8TD19); experiment: Selectivity interaction (Kinase panel (KiNativ target engagement assay in Jurkat cells)) EUB0001635a NEK9; type: cell-based; details: at 1 µM
T3 sequence (whole entry): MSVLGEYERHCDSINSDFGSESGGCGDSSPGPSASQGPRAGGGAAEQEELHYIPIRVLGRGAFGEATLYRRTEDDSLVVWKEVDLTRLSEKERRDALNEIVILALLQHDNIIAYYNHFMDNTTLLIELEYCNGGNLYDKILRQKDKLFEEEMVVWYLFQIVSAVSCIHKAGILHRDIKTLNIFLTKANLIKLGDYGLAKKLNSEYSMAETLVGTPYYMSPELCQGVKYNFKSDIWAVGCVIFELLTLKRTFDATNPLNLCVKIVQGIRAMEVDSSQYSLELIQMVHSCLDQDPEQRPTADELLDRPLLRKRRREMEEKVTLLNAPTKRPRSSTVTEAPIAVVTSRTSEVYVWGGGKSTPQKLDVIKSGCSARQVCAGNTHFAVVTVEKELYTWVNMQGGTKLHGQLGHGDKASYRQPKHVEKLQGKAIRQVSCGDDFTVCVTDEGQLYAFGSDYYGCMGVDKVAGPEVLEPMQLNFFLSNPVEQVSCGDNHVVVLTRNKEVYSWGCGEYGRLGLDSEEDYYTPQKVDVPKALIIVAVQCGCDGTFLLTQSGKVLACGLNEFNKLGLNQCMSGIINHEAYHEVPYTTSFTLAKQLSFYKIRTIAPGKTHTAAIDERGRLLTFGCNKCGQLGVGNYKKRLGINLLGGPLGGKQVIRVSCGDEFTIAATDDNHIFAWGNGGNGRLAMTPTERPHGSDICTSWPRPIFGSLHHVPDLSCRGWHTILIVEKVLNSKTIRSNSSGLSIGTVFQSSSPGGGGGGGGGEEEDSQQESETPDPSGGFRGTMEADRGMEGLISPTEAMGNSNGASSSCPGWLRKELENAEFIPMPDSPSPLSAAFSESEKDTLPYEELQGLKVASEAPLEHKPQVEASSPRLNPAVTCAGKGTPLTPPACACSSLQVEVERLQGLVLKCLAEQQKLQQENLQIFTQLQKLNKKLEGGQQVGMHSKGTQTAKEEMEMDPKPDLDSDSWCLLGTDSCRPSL

Chain of Mitogen-activated protein kinase 14 (Q16539 whole entry): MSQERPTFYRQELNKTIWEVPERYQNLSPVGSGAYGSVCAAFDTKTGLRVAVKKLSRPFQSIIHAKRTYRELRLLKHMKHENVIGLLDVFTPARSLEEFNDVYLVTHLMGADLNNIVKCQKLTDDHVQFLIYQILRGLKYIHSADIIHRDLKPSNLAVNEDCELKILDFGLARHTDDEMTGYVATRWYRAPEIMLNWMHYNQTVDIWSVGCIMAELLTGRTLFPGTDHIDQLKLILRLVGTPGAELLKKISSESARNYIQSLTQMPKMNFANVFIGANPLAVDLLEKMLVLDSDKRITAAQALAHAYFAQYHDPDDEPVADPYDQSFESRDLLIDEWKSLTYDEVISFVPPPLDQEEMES

## CC(=O)Nc1cccc(-n2c(=O)n(C3CC3)c(=O)c3c(Nc4ccc(I)cc4F)n(C)c(=O)c(C)c32)c1
[1]
  % of control: 84%

## CCc1cc(Nc2nccc(-c3c(-c4ccc(OC)c(C(=O)Nc5c(F)cccc5F)c4)nc4ccccn34)n2)c(OC)cc1N1CCC(N2CCN(S(C)(=O)=O)CC2)CC1
[2]
  % of inhibition: 68%

## Cc1cnc(Nc2ccc(F)cc2Cl)nc1-c1c[nH]c(C(=O)N[C@H](CO)c2cccc(Cl)c2)c1
[3]
  % of inhibition: 43%

## CC[C@@H]1[C@H](F)C(=O)N[C@@H]1COc1nccc2cc(C(N)=O)c(OC)cc12 [ZIMLOVISERTIB]
[4]
  % of inhibition: -4.03%

## Cc1cc(CN)cc(C)c1-c1ncn(C)c1-c1cncn1C
[5]
  dTagg: 0.2 K

## Cn1cc(-n2cnc3c(NCc4nc5cc(Cl)c(Cl)cc5[nH]4)nc(N4CCOCC4)nc32)cn1
[6]
  % of inhibition: -3.32%

## COCC(=O)NC/C=C/c1ccc2ncnc(Nc3ccc(Oc4ccc(C)nc4)c(C)c3)c2c1 [CP-724714]
[7]
  % of control: 100%

## Nc1cnc(N2CCc3cc(S(=O)(=O)Nc4c(F)cc(Cl)cc4F)cc(N4CCCC4=O)c32)nc1 [TP-020n]
[8]
  % of control: 100%

## CCC(=O)N1CCN(c2ccc(-n3c(=O)ccc4cnc5ccc(-c6cnc7ccccc7c6)cc5c43)cc2C(F)(F)F)CC1
[9]
  % of control: 73%

## O[C@H]1CC[C@H](Nc2ncc3nc(Nc4c(F)cc(F)cc4F)n([C@H]4CCOC4)c3n2)CC1
[10]
  % of control: 100%
[11]
  % of control: 95%

## CN(C(=O)c1cnn2cccnc12)c1cc2c(cc1N1CCOCC1)C(=O)N(C[C@@H](F)C(C)(C)O)C2
[12]
  dTM: 0.6 K

## C=CC(=O)Nc1ccc(C(=O)Nc2[nH]nc3c2CN(C(=O)N[C@H](CN(C)C)c2ccccc2)C3(C)C)cc1
[13]
  % of engagement: -10.3%
[14]; Selectivity number of off-targets 0.0, Selectivity number of targets 233.0, Source Knowledge https://www.sciencedirect.com/science/article/pii/S2451945619300674?via%3Dihub
  % of engagement: -1.8%
[14]
  % of engagement: -1.7%
